Source: PubChem BioAssay AID248 (DTP/NCI, 2004)
Several values for one entry are separate records, joined by “and”; a condition that tells them apart may be missing. Identical values can stand only once. Toxic doses and inconclusive results are not listed. No stated cut-off is given here; in the data, active means T/C of 150% or more; inactive means T/C below 125%.

Tested on: L1210 leukemia ip in BDF1 mice, survival T/C
Assay: NCI In Vivo Anticancer Drug Screen. Data for tumor model L1210 Leukemia (intraperitoneal) in B6D2F1 (BDF1) mice
Conditions: endpoint: mean survival time, higher = longer survival
In short: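 Tumor cells were implanted, animals were treated, and survival was followed. The result divides the treated measurement by the vehicle-control measurement.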

Measured: T/C

O=[N+]([O-])c1cc2c3c(cccc3c1)CC2
inactive: dose: 100.0 mg/kg/injection, schedule: Q01DX001 (ip), vehicle: saline 95 % of control and 97 % of control | dose: 100.0 mg/kg/injection, schedule: Q04DX002 (ip), vehicle: saline 105 % of control | dose: 200.0 mg/kg/injection, schedule: Q01DX001 (ip), vehicle: saline 100 % of control | dose: 200.0 mg/kg/injection, schedule: Q04DX002 (ip), vehicle: saline 100 % of control | dose: 400.0 mg/kg/injection, schedule: Q01DX001 (ip), vehicle: saline 100 % of control and 110 % of control | dose: 400.0 mg/kg/injection, schedule: Q04DX002 (ip), vehicle: saline 101 % of control

c1ccc(C[Si](c2ccccc2)c2ccccc2)cc1
inactive: dose: 100.0 mg/kg/injection, schedule: Q04DX003 (ip), vehicle: Klucel (hydroxypropylcellulose) (HPC) 107 % of control | dose: 200.0 mg/kg/injection, schedule: Q04DX003 (ip), vehicle: Klucel (hydroxypropylcellulose) (HPC) 100 % of control | dose: 400.0 mg/kg/injection, schedule: Q04DX003 (ip), vehicle: Klucel (hydroxypropylcellulose) (HPC) 98 % of control

NC(C(=O)O)c1ccccc1 (stereo not given)
inactive: dose: 12.5 mg/kg/injection, schedule: Q04DX002 (ip), vehicle: Klucel (hydroxypropylcellulose) (HPC) 96 % of control | dose: 25.0 mg/kg/injection, schedule: Q04DX002 (ip), vehicle: Klucel (hydroxypropylcellulose) (HPC) 104 % of control | dose: 50.0 mg/kg/injection, schedule: Q04DX002 (ip), vehicle: Klucel (hydroxypropylcellulose) (HPC) 96 % of control

CC1=[N+](C)C(C)(C)CC(C)O1 (stereo not given)
inactive: dose: 6.25 mg/kg/injection, schedule: Q01DX009 (ip), vehicle: saline 105 % of control | dose: 6.25 mg/kg/injection, schedule: Q04DX003 (ip), vehicle: saline 94 % of control | dose: 12.5 mg/kg/injection, schedule: Q01DX009 (ip), vehicle: saline 96 % of control | dose: 12.5 mg/kg/injection, schedule: Q04DX003 (ip), vehicle: saline 105 % of control | dose: 25.0 mg/kg/injection, schedule: Q01DX009 (ip), vehicle: saline 105 % of control | dose: 25.0 mg/kg/injection, schedule: Q04DX003 (ip), vehicle: saline 96 % of control

NC(Cc1c[nH]c2ccccc12)C(=O)O (stereo not given)
inactive: dose: 100.0 mg/kg/injection, schedule: Q01DX001 (ip), vehicle: saline with Tween-80 95 % of control | dose: 100.0 mg/kg/injection, schedule: Q01DX009 (ip), vehicle: saline 100 % of control | dose: 200.0 mg/kg/injection, schedule: Q01DX001 (ip), vehicle: saline with Tween-80 98 % of control | dose: 200.0 mg/kg/injection, schedule: Q01DX009 (ip), vehicle: saline 94 % of control | dose: 300.0 mg/kg/injection, schedule: Q01DX001 (ip), vehicle: saline with Tween-80 92 % of control | dose: 400.0 mg/kg/injection, schedule: Q01DX009 (ip), vehicle: saline 94 % of control | dose: 800.0 mg/kg/injection, schedule: Q01DX009 (ip), vehicle: saline 94 % of control

O=c1[nH]cnc2c1ncn2C1CCC(CO)C1 (stereo not given)
inactive: dose: 100.0 mg/kg/injection, schedule: Q01DX001 (ip), vehicle: carboxymethylcellulose (CMC) 100 % of control | dose: 177.0 mg/kg/injection, schedule: Q01DX001 (ip), vehicle: carboxymethylcellulose (CMC) 98 % of control | dose: 200.0 mg/kg/injection, schedule: Q01DX001 (ip), vehicle: carboxymethylcellulose (CMC) 96 % of control | dose: 266.0 mg/kg/injection, schedule: Q01DX001 (ip), vehicle: carboxymethylcellulose (CMC) 98 % of control | dose: 600.0 mg/kg/injection, schedule: Q01DX001 (ip), vehicle: carboxymethylcellulose (CMC) 100 % of control
